Test results published in patent US20150105252A1, “SUBSTITUTED PYRAZOLES AS HERBICIDES” (E I DU PONT DE NEMOURS AND COMPANY, priority 2013, published 2015).

Legend:
barnyardgrass [1] = assay: Test A preemergence; type: in vivo, Echinochloa crus-galli; conditions: preemergence
How it was run: (§1)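 Scoring was visual, on a scale where 100 means complete control and 0 means no effect, comparing treated with untreated plants around 10 days post-application. Compounds in surfactant-containing non-phytotoxic solvent were sprayed onto soil preemergence or onto one- to two-leaf seedlings (2–10 cm) postemergence.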

barnyardgrass [2] = assay: Test A postemergence; type: in vivo, Echinochloa crus-galli
How it was run: as §1

crabgrass, large [3] = assay: Test A postemergence; type: in vivo, Digitaria sanguinalis
How it was run: as §1

morningglory [4] = assay: Test A postemergence; type: in vivo, Ipomoea spp.; conditions: Postemergence
How it was run: as §1

pigweed = assay: Test A postemergence; type: in vivo, Amaranthus retroflexus; conditions: Postemergence
How it was run: as §1

corn = assay: Test A postemergence; type: in vivo, Zea mays
How it was run: as §1

crabgrass, large [5] = assay: Test C preemergence; type: in vivo, Digitaria sanguinalis; conditions: preemergence
How it was run: (§2)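 Seeds were sown in a loam soil–sand blend and sprayed preemergence with compounds formulated in a non-phytotoxic solvent mixture containing surfactant. Postemergence plants, grown in peat/vermiculite medium to 2–18 cm (1- to 4-leaf stage), received the same formulation. After 13 to 15 days in a greenhouse, injury was rated visually against controls (0 = no effect, 100 = complete control).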

morningglory [6] = assay: Test C preemergence; type: in vivo, Ipomoea coccinea; conditions: preemergence
How it was run: as §2

nutsedge, yellow = assay: Test C preemergence; type: in vivo, Cyperus esculentus; conditions: preemergence
How it was run: as §2

barnyardgrass [7] = assay: Test C preemergence; type: in vivo, Echinochloa crus-galli; conditions: preemergence
How it was run: as §2

velvetleaf = assay: Test C preemergence; type: in vivo, Abutilon theophrasti; conditions: preemergence
How it was run: as §2

ryegrass, Italian = assay: Test C postemergence; type: in vivo, Lolium multiflorum; conditions: postemergence
How it was run: as §2

soybean = assay: Test C postemergence; type: in vivo, Glycine max; conditions: postemergence
How it was run: as §2

oilseed rape = assay: Test C postemergence; type: in vivo, Brassica napus; conditions: postemergence
How it was run: as §2

oat, wild = assay: Test C postemergence; type: in vivo, Avena fatua
How it was run: as §2

kochia = assay: Test C postemergence; type: in vivo, Kochia scoparia
How it was run: as §2

[8] = Postemergence, 500 g ai/ha, 0 to 100 scale (0 no effect, 100 complete control)
[9] = postemergence, 125 g ai/ha, about 10 days, visual rating on 0 to 100 scale (0 no effect, 100 complete control)
[10] = 125 g ai/ha, 0 to 100 scale, 0 no effect, 100 complete control
[11] = 500 g ai/ha, 0 to 100 scale (0 no effect, 100 complete control)
[12] = 31 g ai/ha, visual rating, scale 0 to 100 (0 no effect, 100 complete control), 13 to 15 days
[13] = 62 g ai/ha, scale 0 to 100 (0 no effect, 100 complete control), 13 to 15 days
[14] = 125 g ai/ha, 13 to 15 days, scale 0 to 100, 0 = no effect, 100 = complete control
[15] = 250 g ai/ha, scale 0 to 100, 0 is no effect, 100 is complete control
[16] = 250 g ai/ha, scale 0 to 100 (0 no effect, 100 complete control)
[17] = 125 g ai/ha, scale 0 to 100, 0 no effect, 100 complete control
[18] = Postemergence, 31 g ai/ha, visually evaluated after 13 to 15 days
[19] = postemergence, 62 g ai/ha, scale 0 to 100
[20] = postemergence, 250 g ai/ha, scale 0 to 100 (0 no effect, 100 complete control)
[21] = postemergence, 125 g ai/ha, scale 0 to 100, 0 no effect, 100 complete control

CCCc1cc(C(=O)NC(C)C)nn1Cc1cc(C(F)(F)F)nn1C [Compound 201]
90: Crabgrass, Large plant response rating (crabgrass, large [3]; [9]) | Morningglory plant response rating (morningglory [4]; [10]) | Corn plant response rating (corn; [9]) | Velvetleaf plant response rating (velvetleaf; [12]) | Plant response rating, Kochia (kochia; [20]) | Plant response rating, Kochia (kochia; [21])
85: Morningglory plant response rating (morningglory [6]; [12]) | Plant response rating (scale of 0 to 100 where 0 is no effect and 100 is complete control), Kochia (kochia; [18]) | Kochia plant response rating (kochia; [19])
60: Oilseed Rape plant response rating (oilseed rape; 62 g ai/ha, scale 0 to 100)
55: Plant response rating, Nutsedge, Yellow (nutsedge, yellow; [14])
15: Plant response rating, Ryegrass, Italian (ryegrass, Italian; [16])
98: Barnyardgrass plant response rating (barnyardgrass [7]; [12]) | Plant response rating, Soybean (soybean; [16])
25: Plant response rating, Oat, Wild (oat, wild; [21])
20: Nutsedge, Yellow plant response rating (nutsedge, yellow; [13])
100: Barnyardgrass plant response rating (0 to 100 scale, 0 is no effect, 100 is complete control) (barnyardgrass [1]; 125 g ai/ha, visual injury approx. 10 days after treatment) | Barnyardgrass plant response rating (barnyardgrass [1]; 500 g ai/ha, visual injury after approx. 10 days, 0 to 100 scale (0 no effect, 100 complete control)) | Barnyardgrass plant response rating (barnyardgrass [2]; [8]) | Crabgrass, Large plant response rating (crabgrass, large [3]; [8]) | Morningglory plant response rating (morningglory [4]; [11]) | Pigweed plant response rating (pigweed; [10]) | Pigweed plant response rating (pigweed; [11]) | Corn plant response rating (corn; [8]) | Crabgrass, Large plant response rating (crabgrass, large [5]; [12]) | Crabgrass, Large plant response rating (crabgrass, large [5]; [13]) | Plant response rating, Crabgrass, Large (crabgrass, large [5]; [14]) | Crabgrass, Large plant response rating (crabgrass, large [5]; [15]) | Morningglory plant response rating (morningglory [6]; [13]) | Plant response rating, Morningglory (morningglory [6]; [14]) | Morningglory plant response rating (morningglory [6]; [15]) | Barnyardgrass plant response rating (barnyardgrass [7]; [13]) | Plant response rating, Barnyardgrass (barnyardgrass [7]; [14]) | Barnyardgrass plant response rating (barnyardgrass [7]; [15]) | Velvetleaf plant response rating (velvetleaf; [13]) | Plant response rating, Velvetleaf (velvetleaf; [14]) | Velvetleaf plant response rating (velvetleaf; [15])
5: Nutsedge, Yellow plant response rating (nutsedge, yellow; [12]) | Plant response rating, Ryegrass, Italian (ryegrass, Italian; [17]) | Plant response rating (scale of 0 to 100 where 0 is no effect and 100 is complete control), Oat, Wild (oat, wild; [18])
50: Plant response rating, Oilseed Rape (oilseed rape; [17])
10: Oat, Wild plant response rating (oat, wild; [19])
40: Plant response rating, Oat, Wild (oat, wild; [20])
80: Barnyardgrass plant response rating (barnyardgrass [2]; [9]) | Nutsedge, Yellow plant response rating (nutsedge, yellow; [15]) | Plant response rating, Oilseed Rape (oilseed rape; [16])
95: Soybean plant response rating (soybean; [17])
